US20240002416A1 (Rheinische-Friedrich-Wilhelms-Universität Bonn, priority 2020, published 2024)

Legend:
[1] = target: T1, human MRGPRX4-83L (Homo sapiens, UniProt Q96LA9); experiment: Calcium assay (human MRGPRX4 83L), recombinant astrocytes; format: cell-based; settings: for EC50: calcium mobilization, MRGPRX4-83L, read-out: EC50 ± SEM; for Emax: efficacy based on maximal effect of 1 μM B-16 (set as 100%), read-out: Emax
T1 construct: host or cells: CHO β-arrestin cells
Procedure, shortened: (§1)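 Recombinant CHO cells served for arrestin recruitment, detected as complemented β-galactosidase activity. For intracellular calcium, 83L was tested in recombinant astrocytes and 83S in glioblastoma LN229 cells expressing it natively.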

[2] = target: T1, human MRGPRX4-83L; experiment: β-arrestin assay (CHO β-arrestin ARMS1-ProLink 2 human MRGPRX4 83L); format: cell-based; settings: for Emax: efficacy based on maximal effect of 100 nM B-16 (set as 100%), read-out: Emax; for EC50: β-arrestin recruitment, CHO cells, MRGPRX4-83L, read-out: EC50 ± SEM
Procedure, shortened: as §1

[3] = target: T2, MRGPRX4-83S (Homo sapiens, UniProt Q96LA9, L83S); experiment: β-arrestin assay (CHO β-arrestin human MRGPRX4-83S); format: cell-based; parameters: host or cells: CHO β-arrestin cells; settings: for Emax: efficacy based on 100 nM B-16 (set as 100%), read-out: Emax; for EC50: β-arrestin recruitment, CHO cells, MRGPRX4-83S, read-out: EC50 ± SEM
T2 sequence (Q96LA9 whole entry L83S): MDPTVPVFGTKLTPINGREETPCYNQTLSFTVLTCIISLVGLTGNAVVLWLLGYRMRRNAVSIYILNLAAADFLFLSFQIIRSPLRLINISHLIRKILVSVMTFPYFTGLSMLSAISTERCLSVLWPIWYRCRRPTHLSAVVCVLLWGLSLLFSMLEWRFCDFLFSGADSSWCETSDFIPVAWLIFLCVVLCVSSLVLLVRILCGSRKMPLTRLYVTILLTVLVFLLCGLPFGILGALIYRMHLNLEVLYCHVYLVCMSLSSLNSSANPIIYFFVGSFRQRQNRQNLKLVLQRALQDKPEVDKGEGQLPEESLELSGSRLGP
Procedure, shortened: as §1

[4] = target: T2, MRGPRX4-83S; experiment: Calcium assay (human glioblastoma LN229 cells expressing the MRGPRX4-83S); format: cell-based; parameters: LN229 glioblastoma cells natively expressing the MRGPRX4-83S; endogenous in cells; host or cells: LN229 human glioblastoma cells; settings: for Emax: LN-229, efficacy based on 30 μM H-1 (set as 100%), read-out: Emax; for EC50: calcium mobilization, LN229 cells, MRGPRX4-83S, read-out: EC50 ± SEM
Procedure, shortened: as §1

T1 sequence (Q96LA9 whole entry): as the sequence (Q96LA9 whole entry L83S) above, with S83L counted along it

| Compound | melting point | EC50 ([1]; Table 4) | Emax ([1]; Table 4) | Emax ([2]; Table 4) | EC50 ([2]; Table 4) | Emax ([3]; Table 3) | EC50 ([3]; Table 3) | Emax ([4]; Table 3) | EC50 ([4]; Table 3) | EC50 ([1]; Table 1) | Emax ([1]; Table 1) | Emax ([2]; Table 1) | EC50 ([2]; Table 1, means of 3-4 experiments) | Emax ([3]; Table 2) | EC50 ([3]; Table 2) | Emax ([4]; Table 2) | EC50 ([4]; Table 2) | IC50 [1] | IC50 [4] |
| --- | --- | --- | --- | --- | --- | --- | --- | --- | --- | --- | --- | --- | --- | --- | --- | --- | --- | --- | --- |
| C#CCn1c(=O)c2c(nc(CCc3ccccc3Br)n2CC2CCC2)n(CCCCP(=O)(O)O)c1=O [B-45, (4-(8-(2-Bromophenethyl)-7-(cyclobutylmethyl)-2,6-dioxo-1-(prop-2-yn-1-yl)-1,2,6,7-tetrahydro-3H-purin-3-yl)butyl)phosphonic acid] | 167 to 169 °C | 12.7 nM | 101% | 99% | 85.1 ± 27.9 nM | 93% | 0.298 ± 0.05 nM | 97% | 0.32 ± 0.087 nM |  |  |  |  |  |  |  |  |  |  |
| C#CCn1c(=O)c2[nH]c(CCc3cccc(OC)c3)nc2n(CCCCP(=O)(O)OCC)c1=O [D-3, Ethyl hydrogen (4-(8-(3-methoxyphenethyl)-2,6-dioxo-1-(prop-2-yn-1-yl)-1,2,6,7-tetrahydro-3H-purin-3-yl)butyl)phosphonate] | 118 to 120 °C |  |  |  |  |  |  |  |  | 36.3 ± 1.8 nM | 114% | 112% | 407 ± 710 nM | 110% | 5.8 ± 1.41 nM | 111% | 2.65 ± 0.72 nM |  |  |
| C#CCn1c(=O)c2c(nc(CCc3c(Cl)cccc3Cl)n2CC)n(CCCCP(=O)(O)O)c1=O [B-34, (4-(8-(2,6-Dichlorophenethyl)-7-ethyl-2,6-dioxo-1-(prop-2-yn-1-yl)-1,2,6,7-tetrahydro-3H-purin-3-yl)butyl)phosphonic acid] | 207 to 209 °C | 2 ± 0.94 nM | 97% | 95% | 9.02 ± 1.49 nM | 110% | 0.146 ± 0.033 nM | 104% | 0.363 ± 0.109 nM |  |  |  |  |  |  |  |  |  |  |
| C#CCn1c(=O)c2c(nc(CCc3ccc(Br)cc3)n2CC2CCCC2)n(CCCCP(=O)(O)O)c1=O [B-38, (4-(8-(4-Bromophenethyl)-7-(cyclopentylmethyl)-2,6-dioxo-1-(prop-2-yn-1-yl)-1,2,6,7-tetrahydro-3H-purin-3-yl)butyl)phosphonic acid] | 129 to 131 °C | 267 ± 153 nM | 9% | 92% | 1.44 ± 0.32 nM | 79% | 13.4 ± 0.8 nM | 6% | 5.81 ± 0.58 nM |  |  |  |  |  |  |  |  | 949 ± 308 nM | 5.23 ± 2.2 nM |
